From publication PMC12871931, “The importin‐alpha superfamily engages in ethylene signaling by shuttling [sequence] INSENSITIVE 2 from the endoplasmic reticulum to the nucleus” (The Febs Journal, 2025) come the findings set out here.

The test concerns EIN2C^479–1294ΔNLS. The test is described as follows: In planta FLIM‐FRET, EIN2C^479–1294ΔNLS‐CER donor, IMPα3‐YFP acceptor. The class given is cell-based, Arabidopsis thaliana. The conditions noted are these: co‐expression of IMPα3‐YFP acceptor, negative control, t‐test. An excerpt: To further investigate the interaction between members of the IMPα superfamily and EIN2 in planta, we used in vivo fluorescence lifetime microscopy and Förster's resonance energy transfer (FLIM‐FRET). Accordingly, the C‐terminal part of EIN2 (EIN2C^479–1294) was fused to the fluorescent protein Cerulean (CER), serving as a donor, and the IMPα isoforms (IMPα1‐7) were fused to YELLOW FL[…] (YFP), serving as acceptors.
FRET efficiencies ranged between 2.8–4.6%. […] Given that nuclear import of the EIN2C^479–1294ΔNLS variant is abolished, we then tested whether this is due to an impaired interaction with IMPα proteins. […]
A modified version of a previously described procedure was used for the transient transformation of N. benthamiana. […] For co‐infiltration, bacteria solutions were mixed in equal quantities, and Agrobacterium strain GV3101:p19 expressing the p19 silencing inhibitor was added to each mix. […]
Fluorescence lifetime imaging was performed using a protocol described previously. Fluorescence lifetime was measured at a Zeiss LSM 780 confocal microscope (40× water immersion objective, Zeiss C‐PlanApo, NA 1.2). […] Photons were detected in both donor and acceptor channels simultaneously with Tau‐SPADs (PicoQuant, Berlin, Germany). […] Fluorescence lifetime images were acquired in the cytosol, ER, or nucleus in donor‐only samples and samples with IMPα1‐4 and IMPα7. […]

For “IMPα3‐YFP: A. thaliana IMPα3 fused to YFP, FRET acceptor”, the “fluorescence lifetime of EIN2^479–1294ΔNLS‐CER” value is “did not result in a reduction of the fluorescence lifetime”.
